Where “and” joins values, the source holds several entries; their conditions need not be identical. Identical values can stand only once.
System: peripheral blood lymphocytes collected from swine exposed to ASFV
Type: cell-based

Substance | Number of Spots
1090 (ALFPQYISYY) [compound 1090] | 106
1454 (INHLYKFLL) [compound 1454] | 12 and 18
2125 (TAIQKNYFR) [compound 2125] | 14
743 (SKFCNHMFF) [compound 743] | 16
1187 (FSEHTKFFSY) [compound 1187] | 15 and 16
2159 (RIHTRFGQYY) [compound 2159] | 15
1400 (KESAETIYTF) [compound 1400] | 14
1783 (GMQDGIRWFY) [compound 1783] | 13
1278 (NYYPYYIY) [compound 1278] | 16
1648 (RTLMDQPTY) [compound 1648] | 14
633 (ILEGVLGYF) [compound 633] | 14
835 (AMFFTRSEW) [compound 835] | 26
1875 (ISPRISYQF) [compound 1875] | 12
84 (KVLGLLLGY) [compound 84] | 16
523 (MGFSKPFMR) [compound 523] | 12
1151 (NLSEVVTAY) [compound 1151] | 16
66 (CTYGEGNGHY) [compound 66] | 62
1139 (ALANTSANY) [compound 1139] | 12
1375 (RAREFYISW) [compound 1375] | 15
458 (IVSEYINYLF) [compound 458] | 16
1991 (KQELSRLIY) [compound 1991] | 29
565 (SKVMDMICLDY) [compound 565] | 17
1718 (SSELHFYVF) [compound 1718] | 15
1989 (RMHIYETNLY) [compound 1989] | 14
2252 (AIQYFYQRYR) [compound 2252] | 13

Substance | Number of Spots
1207 (DYSLTFLLKK) [compound 1207] | 17
1571 (KTVQHIEQY) [compound 1571] | 14
847 (YINFRLKTFY) [compound 847] | 21
1658 (AFINSTDFLY) [compound 1658] | 12
653 (WAVFTGNMEL) [compound 653] | 16
447 (NIIHTIYQSY) [compound 447] | 331
1519 (FGMMNQTNY) [compound 1519] | 13
1706 (RLQTPIPVY) [compound 1706] | 13
1580 (SNMKQFCKI) [compound 1580] | 12
1080 (FRDHFIAL) [compound 1080] | 16
1001 (FKLYYIPLSI) [compound 1001] | 21
608 (INCFNYCILY) [compound 608] | 13
1517 (ATKKALIHF) [compound 1517] | 13
85 (KSELSYWCTY) [compound 85] | 20
884 (ISAINHFNY) [compound 884] | 19
1767 (LLDTNTNFY) [compound 1767] | 13 and 21
1370 (GAMMITFAL) [compound 1370] | 14
1388 (LVYELPAPF) [compound 1388] | 14
585 (VVDDVPSIDY) [compound 585] | 12
1511 (RSLSNFQAL) [compound 1511] | 17
1379 (VVSASAINF) [compound 1379] | 13
960 (ETTLINCTYL) [compound 960] | 13
1141 (ILAEYVYSY) [compound 1141] | 18
1824 (SMMDFERVHY) [compound 1824] | 14
1619 (IDFDPLVTFY) [compound 1619] | 16

Substance | Number of Spots
469 (HVVQRLGLY) [compound 469] | 14
1491 (MIADAINQEF) [compound 1491] | 13
1627 (GTDLYQSAM) [compound 1627] | 12
1749 (TLDFDRMWY) [compound 1749] | 15
1544 (GSLYPTQFDY) [compound 1544] | 14
1091 (LFPQYISYY) [compound 1091] | 17
1510 (FTDNAPAGHYY) [compound 1510] | 15
860 (KARLCGLSY) [compound 860] | 14 and 19
1810 (KTIFNNVRY) [compound 1810] | 13
439 (ISPEKFIKI) [compound 439] | 16
1184 (LSDLRNFSF) [compound 1184] | 16
280 (SLSTLLLKY) [compound 280] | 12
1841 (SMFKHFDNM) [compound 1841] | 17
1566 (ARIYAGQGY) [compound 1566] | 14
2197 (KVRNKAIELY) [compound 2197] | 17
1436 (NKANKAFYI) [compound 1436] | 13
1761 (SVYHVQEEL) [compound 1761] | 12
1512 (QIYKTLLEY) [compound 1512] | 21
1020 (QTNCQLYFF) [compound 1020] | 18
1483 (KTIKHYEQL) [compound 1483] | 12
977 (LSSNYFYTF) [compound 977] | 18
1188 (VSNILHSVF) [compound 1188] | 13
2092 (KAKIAFPPEY) [compound 2092] | 17
703 (STVITTAYNF) [compound 703] | 13
1864 (SMPMSMIGPY) [compound 1864] | 13

Substance | Number of Spots
1390 (QQMLTRHIY) [compound 1390] | 12
724 (HSDMYSVIFNI) [compound 724] | 15
478 (STYTEIVKY) [compound 478] | 33 and 19
1394 (SSFKCWTCHLY) [compound 1394] | 14
1750 (SMSYFDGKTEY) [compound 1750] | 17
335 (YLHETLFEL) [compound 335] | 12
1950 (ELVDHIFNY) [compound 1950] | 16
1823 (YTKFFNCPF) [compound 1823] | 25
971 (LTLSSNYFY) [compound 971] | 12
1952 (LSKNIAAEY) [compound 1952] | 17
2118 (MMQTAIQKNYF) [compound 2118] | 13
757 (CFMMQCKSIY) [compound 757] | 16
1982 (NAFEWIHFV) [compound 1982] | 14
2223 (SFSEMLTRY) [compound 2223] | 12
896 (SGLQSFYLY) [compound 896] | 18 and 26
2139 (NYFRFFKKLL) [compound 2139] | 19
1484 (GTSYLRMAY) [compound 1484] | 14
827 (NNVSYYWGL) [compound 827] | 13
1531 (MVFNQLIASY) [compound 1531] | 12
2251 (AIQYFYQRY) [compound 2251] | 12
56 (MRYTQIYKYPL) [compound 56] | 23
1523 (STAQVHLDF) [compound 1523] | 14
2211 (ASFKEGLSL) [compound 2211] | 12
906 (WVGYNNVCYY) [compound 906] | 12
1685 (NINRLMPYF) [compound 1685] | 12

Substance | Number of Spots
1509 (TLAQVFESF) [compound 1509] | 17
744 (SKFCNHMFFR) [compound 744] | 18
2266 (YRHFKDWRL) [compound 2266] | 14
2127 (AIQKNYFRF) [compound 2127] | 15
1753 (YFDTFANAM) [compound 1753] | 13
2126 (TAIQKNYFRF) [compound 2126] | 13
923 (VLLRDSGYY) [compound 923] | 14 and 16
2075 (KSCYPLVFI) [compound 2075] | 12
1150 (KSQDTLHRF) [compound 1150] | 12
1212 (TFLLKKRMEL) [compound 1212] | 19
1065 (KTRGTRLFF) [compound 1065] | 36
2213 (KTSSNIILY) [compound 2213] | 12
2171 (FIRLYPHIFY) [compound 2171] | 18
2194 (RSCDYAPGFY) [compound 2194] | 12
1437 (KANKAFYINH) [compound 1437] | 12 and 16
1106 (CSSCMVRTY) [compound 1106] | 130
1264 (RINRNYYPYYI) [compound 1264] | 12
1049 (SLEFNTFYAF) [compound 1049] | 15
357 (YSYCFIKHF) [compound 357] | 13
926 (KQKHVSLLY) [compound 926] | 16
1651 (RFSRPGNNY) [compound 1651] | 17
2205 (SVEELLSAV) [compound 2205] | 13
1835 (KILGLLLAY) [compound 1835] | 21
VLIEFLTGFF [SEQ ID NO. 554] | 16
